Key:
Type in all cases: in vivo
[1] = system: ragweed (common ragweed, Ambrosia elatior); assay: Test B pre-/postemergence plant response
Procedure, shortened: (§1)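 Visually scored on a 0 to 100 scale after 13 to 15 days in greenhouse versus controls. Treatments were preemergence on seeded loam/sand soil and postemergence on 1- to 4-leaf plants.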

[2] = system: johnsongrass (Sorghum halepense); assay: Test B pre-/postemergence plant response
Procedure, shortened: as §1

[3] = system: green foxtail (Setaria viridis); assay: Test B pre-/postemergence plant response
Procedure, shortened: as §1

[4] = system: giant foxtail (Setaria faberii); assay: Test B pre-/postemergence plant response
Procedure, shortened: as §1

[5] = system: lambsquarters (Chenopodium album); assay: Test B pre-/postemergence plant response
Procedure, shortened: as §1

kochia (Kochia scoparia) = assay: Test B pre-/postemergence plant response
Procedure, shortened: as §1

soybean (Glycine max) = assay: Test B pre-/postemergence plant response
Procedure, shortened: as §1

corn (Zea mays) = assay: Test B pre-/postemergence plant response
Procedure, shortened: as §1

[6] = system: bermudagrass (Cynodon dactylon); assay: Test B pre-/postemergence plant response
Procedure, shortened: as §1

wild oat (Avena fatua) = assay: Test B pre-/postemergence plant response
Procedure, shortened: as §1

[7] = system: cocklebur (Xanthium strumarium); assay: Test B pre-/postemergence plant response
Procedure, shortened: as §1

[8] = system: pigweed (Amaranthus retroflexus); assay: Test B pre-/postemergence plant response
Procedure, shortened: as §1

[9] = system: barnyardgrass (Echinochloa crus-galli); assay: Test B flooded paddy test; details: for Plant response rating, Barnyardgrass: Flood (flooded paddy test), 13 to 15 days
Procedure, shortened: (§2)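 Visual scores run from 0 (no effect) to 100 (complete control), assigned by comparison with controls 13 to 15 days after treatment. Test compounds went straight into water standing 3 cm above the soil, around plants at the 2-leaf stage kept in a greenhouse.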

[10] = system: ducksalad (Heteranthera limosa); assay: Test B flooded paddy test; details: for Plant response rating, Ducksalad: Flood (flooded paddy test), 13 to 15 days
Procedure, shortened: as §2

[11] = system: umbrella sedge (Cyperus difformis); assay: Test B flooded paddy test; details: for Plant response rating, Sedge, Umbrella: Flood (flooded paddy test), 13 to 15 days
Procedure, shortened: as §2

rice (Oryza sativa) = assay: Test B flooded paddy test; details: for Plant response rating, Rice: Flood (flooded paddy test), 13 to 15 days
Procedure, shortened: as §2

[12] = 250 g ai/ha, Preemergence, 0 to 100 scale
[13] = Postemergence, 31 g ai/ha, scale 0 to 100 (0 no effect, 100 complete control)
[14] = Postemergence, 62 g ai/ha, scale 0 (no effect) to 100 (complete control), 13 to 15 days
[15] = Postemergence, 125 g ai/ha, visual rating after 13 to 15 days, scale 0 (no effect) to 100 (complete control)
[16] = Postemergence, 250 g ai/ha, scale 0 to 100
[17] = Preemergence, 31 g ai/ha, scale 0 to 100 (0 no effect, 100 complete control)
[18] = Preemergence, 62 g ai/ha, scale 0 to 100, 0 no effect, 100 complete control
[19] = Preemergence, 125 g ai/ha, 0 to 100 scale
[20] = 250 g ai/ha, flooded paddy test, visual rating on 0 to 100 scale (0 no effect, 100 complete control) after 13 to 15 days
[21] = 31 g ai/ha, scale of 0 to 100 where 0 is no effect and 100 is complete control
[22] = 62 g ai/ha, scale 0 to 100, 0 is no effect, 100 is complete control
[23] = 125 g ai/ha, scale 0 to 100, 0 is no effect, 100 is complete control

Q: Which “Plant response rating, Ragweed” value [1, 12] does the source give for “2-(3,5-difluorophenyl)-5-[(2-hydroxy-4-oxobicyclo[3.2.1]oct-2-en-3-yl)carbonyl]-3-(2-methoxyethyl)-4(3H)-pyrimidinone [Compound 243]” here?
A: 100

Q: And the “Plant response rating, Ragweed” value [1, 13]?
A: 70

Q: What about the “Plant response rating, Ragweed” value [1, 14] of the same substance?
A: 75

Q: And the “Plant response rating, Ragweed” value [1, 15]?
A: 75

Q: What about the “Ragweed plant response rating” value [1, 16] of the same substance?
A: 100

Q: And the “Plant response rating, Ragweed” value [1, 17]?
A: 55

Q: What about the “Plant response rating, Ragweed” value [1, 18] of the same substance?
A: 90

Q: And the “Ragweed plant response rating” value [1, 19]?
A: 100

Q: What about the “Plant response rating, Johnsongrass” value [2, 12] of the same substance?
A: 98

Q: And the “Plant response rating, Johnsongrass” value [2, 13]?
A: 60

Q: What about the “Plant response rating, Johnsongrass” value [2, 14] of the same substance?
A: 70

Q: What about the “Plant response rating, Johnsongrass” value [2, 15] of the same substance?
A: 85

Q: What about the “Johnsongrass plant response rating” value [2, 16] of the same substance?
A: 95

Q: And the “Plant response rating, Johnsongrass” value [2, 17]?
A: 0

Q: And the “Plant response rating, Johnsongrass” value [2, 18]?
A: 85

Q: What about the “Johnsongrass plant response rating” value [2, 19] of the same substance?
A: 90

Q: And the “Plant response rating, Foxtail, Green” value [3, 13]?
A: 35

Q: And the “Plant response rating, Foxtail, Green” value [3, 14]?
A: 40

Q: What about the “Plant response rating, Foxtail, Green” value [3, 15] of the same substance?
A: 80

Q: What about the “Foxtail, Green plant response rating” value [3, 16] of the same substance?
A: 95

Q: And the “Plant response rating, Foxtail, Green” value [3, 17]?
A: 0

Q: What about the “Plant response rating, Foxtail, Green” value [3, 18] of the same substance?
A: 0

Q: And the “Foxtail, Green plant response rating” value [3, 19]?
A: 5

Q: And the “Plant response rating, Foxtail, Giant” value [4, 12]?
A: 98

Q: What about the “Plant response rating, Foxtail, Giant” value [4, 13] of the same substance?
A: 75

Q: What about the “Plant response rating, Foxtail, Giant” value [4, 14] of the same substance?
A: 85

Q: And the “Plant response rating, Foxtail, Giant” value [4, 15]?
A: 95

Q: And the “Foxtail, Giant plant response rating” value [4, 16]?
A: 100

Q: What about the “Plant response rating, Foxtail, Giant” value [4, 17] of the same substance?
A: 0

Q: What about the “Plant response rating, Foxtail, Giant” value [4, 18] of the same substance?
A: 15

Q: And the “Foxtail, Giant plant response rating” value [4, 19]?
A: 60

Q: What about the “Plant response rating, Lambsquarters” value [5, 12] of the same substance?
A: 100

Q: What about the “Plant response rating, Lambsquarters” value [5, 13] of the same substance?
A: 75

Q: And the “Plant response rating, Lambsquarters” value [5, 14]?
A: 80

Q: What about the “Plant response rating, Lambsquarters” value [5, 15] of the same substance?
A: 80

Q: And the “Lambsquarters plant response rating” value [5, 16]?
A: 95

Q: What about the “Plant response rating, Lambsquarters” value [5, 17] of the same substance?
A: 100

Q: And the “Plant response rating, Lambsquarters” value [5, 18]?
A: 100

Q: What about the “Lambsquarters plant response rating” value [5, 19] of the same substance?
A: 100

Q: What about the “Plant response rating, Kochia” value (kochia (Kochia scoparia); [12]) of the same substance?
A: 100

Q: What about the “Plant response rating, Kochia” value (kochia (Kochia scoparia); [13]) of the same substance?
A: 10

Q: And the “Plant response rating, Kochia” value (kochia (Kochia scoparia); [14])?
A: 15

Q: What about the “Plant response rating, Kochia” value (kochia (Kochia scoparia); [15]) of the same substance?
A: 25

Q: And the “Kochia plant response rating” value (kochia (Kochia scoparia); [16])?
A: 85

Q: And the “Plant response rating, Kochia” value (kochia (Kochia scoparia); [17])?
A: 15

Q: What about the “Plant response rating, Kochia” value (kochia (Kochia scoparia); [18]) of the same substance?
A: 100

Q: What about the “Kochia plant response rating” value (kochia (Kochia scoparia); [19]) of the same substance?
A: 100

Q: And the “Plant response rating, Soybean” value (soybean (Glycine max); [12])?
A: 80

Q: And the “Plant response rating, Soybean” value (soybean (Glycine max); [13])?
A: 70

Q: What about the “Plant response rating, Soybean” value (soybean (Glycine max); [14]) of the same substance?
A: 75

Q: What about the “Plant response rating, Soybean” value (soybean (Glycine max); [15]) of the same substance?
A: 85

Q: What about the “Soybean plant response rating” value (soybean (Glycine max); [16]) of the same substance?
A: 98

Q: What about the “Plant response rating, Soybean” value (soybean (Glycine max); [17]) of the same substance?
A: 0

Q: And the “Plant response rating, Soybean” value (soybean (Glycine max); [18])?
A: 10

Q: And the “Plant response rating, Corn” value (corn (Zea mays); [12])?
A: 10

Q: And the “Plant response rating, Corn” value (corn (Zea mays); [13])?
A: 15

Q: And the “Plant response rating, Corn” value (corn (Zea mays); [14])?
A: 45

Q: What about the “Plant response rating, Corn” value (corn (Zea mays); [15]) of the same substance?
A: 75

Q: And the “Corn plant response rating” value (corn (Zea mays); [16])?
A: 80

Q: And the “Plant response rating, Corn” value (corn (Zea mays); [17])?
A: 0

Q: What about the “Plant response rating, Corn” value (corn (Zea mays); [18]) of the same substance?
A: 0

Q: And the “Corn plant response rating” value (corn (Zea mays); [19])?
A: 0

Q: What about the “Plant response rating, Bermudagrass” value [6, 12] of the same substance?
A: 100

Q: What about the “Plant response rating, Bermudagrass” value [6, 13] of the same substance?
A: 90

Q: And the “Plant response rating, Bermudagrass” value [6, 14]?
A: 95

Q: What about the “Plant response rating, Bermudagrass” value ([6]; Postemergence, 125 g ai/ha, scale 0 to 100 (0 no effect, 100 complete control), 13 to 15 days) of the same substance?
A: 98

Q: What about the “Bermudagrass plant response rating” value [6, 16] of the same substance?
A: 98

Q: And the “Plant response rating, Bermudagrass” value [6, 17]?
A: 98

Q: And the “Plant response rating, Bermudagrass” value [6, 18]?
A: 100

Q: And the “Bermudagrass plant response rating” value [6, 19]?
A: 100

Q: What about the “Plant response rating, Oat, Wild” value (wild oat (Avena fatua); [12]) of the same substance?
A: 60

Q: And the “Plant response rating, Oat, Wild” value (wild oat (Avena fatua); [13])?
A: 0

Q: And the “Plant response rating, Oat, Wild” value (wild oat (Avena fatua); [14])?
A: 5

Q: And the “Plant response rating, Oat, Wild” value (wild oat (Avena fatua); [15])?
A: 40

Q: And the “Oat, Wild plant response rating” value (wild oat (Avena fatua); [16])?
A: 55

Q: What about the “Plant response rating, Oat, Wild” value (wild oat (Avena fatua); [17]) of the same substance?
A: 0

Q: What about the “Plant response rating, Oat, Wild” value (wild oat (Avena fatua); [18]) of the same substance?
A: 0

Q: What about the “Oat, Wild plant response rating” value (wild oat (Avena fatua); [19]) of the same substance?
A: 0

Q: And the “Plant response rating, Cocklebur” value [7, 12]?
A: 100

Q: What about the “Plant response rating, Cocklebur” value [7, 13] of the same substance?
A: 0

Q: What about the “Plant response rating, Cocklebur” value [7, 14] of the same substance?
A: 0

Q: And the “Plant response rating, Cocklebur” value [7, 15]?
A: 35

Q: What about the “Cocklebur plant response rating” value [7, 16] of the same substance?
A: 45

Q: And the “Plant response rating, Cocklebur” value [7, 17]?
A: 0

Q: What about the “Plant response rating, Cocklebur” value [7, 18] of the same substance?
A: 25

Q: And the “Cocklebur plant response rating” value [7, 19]?
A: 65

Q: And the “Plant response rating, Pigweed” value [8, 12]?
A: 100

Q: What about the “Plant response rating, Pigweed” value [8, 13] of the same substance?
A: 80

Q: What about the “Plant response rating, Pigweed” value [8, 14] of the same substance?
A: 85

Q: What about the “Plant response rating, Pigweed” value [8, 15] of the same substance?
A: 100

Q: What about the “Pigweed plant response rating” value [8, 16] of the same substance?
A: 100

Q: What about the “Plant response rating, Pigweed” value [8, 17] of the same substance?
A: 50

Q: And the “Plant response rating, Pigweed” value [8, 18]?
A: 100

Q: And the “Pigweed plant response rating” value [8, 19]?
A: 100

Q: What about the “Plant response rating, Flood, Barnyardgrass” value [9, 20] of the same substance?
A: 50

Q: And the “Plant response rating, Barnyardgrass” value [9, 21]?
A: 0

Q: What about the “Plant response rating, Barnyardgrass” value [9, 22] of the same substance?
A: 0

Q: And the “Plant response rating, Barnyardgrass” value [9, 23]?
A: 0

Q: And the “Plant response rating, Flood, Ducksalad” value [10, 20]?
A: 75

Q: And the “Plant response rating, Ducksalad” value [10, 21]?
A: 0

Q: And the “Plant response rating, Ducksalad” value [10, 22]?
A: 30

Q: What about the “Plant response rating, Ducksalad” value [10, 23] of the same substance?
A: 60

Q: And the “Plant response rating, Flood, Sedge, Umbrella” value [11, 20]?
A: 75

Q: And the “Plant response rating, Sedge, Umbrella” value [11, 21]?
A: 0

Q: What about the “Plant response rating, Sedge, Umbrella” value [11, 22] of the same substance?
A: 30

Q: And the “Plant response rating, Sedge, Umbrella” value [11, 23]?
A: 70

Q: And the “Plant response rating, Flood, Rice” value (rice (Oryza sativa); [20])?
A: 0

Q: What about the “Plant response rating, Rice” value (rice (Oryza sativa); [21]) of the same substance?
A: 0

Q: And the “Plant response rating, Rice” value (rice (Oryza sativa); [22])?
A: 0

Q: And the “Plant response rating, Rice” value (rice (Oryza sativa); [23])?
A: 0

Source: patent US8952024B2, “Herbicidal pyrimidone derivatives” (E I du Pont de Nemours and Company, priority 2009, dated 2015)
